Laboratory results taken from patent US10383819B1, “Method to effect biphasic bioavailability of oral euphoric psychogenic cannabinoids” (Callitas Therapeutics, Inc., priority 2018, dated 2019).

Experiments:
[1] = Respiratory depression; conditions: in vivo
Method: The biphasic THC bioavailability, rapid oral absorption of THC, and the delayed, subsequent conversion of THC into 11-OH THC, provide both an immediate euphoric state and an extended euphoric state, 12-18 hours, that could provide a safe drug alternative to opioids. Opioids cause respiratory depression and overdose deaths from respiratory depression relative to opioid dose. This is the rationale of the second reference, and the reason that Massachusetts prioritized recreational cannabis dispensary licenses to areas of high opioid overdose deaths.

[2] = cited from earlier work
[3] = Menthol/1-arginine enhanced oral mucous membrane absorption of THC and euphoric effect
Method: FIG. 1 of Human Cannabinoid Pharmacokinetics, by Marilyn A. Huestis, (www.pubmed.gov/17712819) published as Chem Biodivers. 2007 August: 4(8): 1770-1804. […] This is with 8 inhalations over 10 minutes, in 6 patients. […] The method entails maintaining the menthol/1-arginine/THC coated edible THC in the oral cavity for about 10 minutes before chewing the edible.

[4] = cited from earlier work; remark: listed apart in the source
[5] = menthol/1-arginine enhanced, oral cavity

Row | Molecule | respiratory depression [1] | maximum effect (plasma concentration) ([2]; 6 hours after ingestion) | area under the curve (AUC) of plasma concentration relative to THC ([2]; after ingestion of THC) | duration of plasma concentration ([2]; after ingestion of THC) | plasma concentration at peak effect relative to the peak THC plasma concentration ([2]; after ingestion of THC) | time after ingestion up to which an effect is produced ([2]; after ingestion of THC) | time of maximum effect after ingestion ([2]; after ingestion of THC) | oral mucous membrane absorption of THC relative to the efficacy of smoked/inhaled THC [3, 5] | window in which oral mucous membrane absorption occurs [3, 5] | duration of euphoric effect ([3]; orally absorbed THC, depending upon THC dosage) | metabolism of inhaled or smoked THC into 11-OH THC ([4]; inhaled or smoked) | rise of plasma THC ([4]; smoking 3.55% THC cannabis, 8 inhalations over 10 minutes, 6 patients, from 0 in 10 minutes)
1 | CCCCCc1cc(O)c2c(c1)OC(C)(C)[C@@H]1CCC(CO)=C[C@@H]21 [11-OH THC, 11-hydroxy tetrahydrocannabinol] | do not cause respiratory depression | 110 micrograms/ml | triple | over 24 hours | double | up to 15 hours | 6 h |  |  |  |  | 
2 | CCCCCc1cc(O)c2c(c1)OC(C)(C)[C@@H]1CCC(C)=C[C@@H]21 [THC, delta-9 tetrahydrocannabinol] | do not cause respiratory depression |  |  | 12 h |  |  |  | about 70% | 10 to 15 min | 4 to 8 h | not metabolized into 11-OH THC | 150 micrograms/ml
3 | Cannabis | do not cause respiratory depression |  |  |  |  |  |  |  |  |  |  | 
